# Results taken from patent publication US10077288B2, “Hydroxystatin derivatives for the treatment of arthrosis” (Merck Patent GmbH, priority 2012, dated 2018).
# How the values were obtained:
# [1] = test system: bovine explants (cartilage degradation, liberation of GAG); experiment: Cartilage explant assay: pH-induced cartilage degradation, GAG release; assay type: cell-based; settings: Bos taurus, 72 h, pH 5.5, 3 days
# From the text: EXAMPLE 5: CARTILAGE EXPLANT ASSAY
# In order to investigate the effect of potential cathepsin D inhibitors on cartilage degradation, a pH-induced model based on bovine explants is used. The pH of the medium in which the explants are cultivated is matched here to the pathophysiological pH of an arthrotic knee. This pH is pH 5.5. In this ex vivo model, potential cathepsin D inhibitors are subsequently investigated for their action with respect to stopping of the cartilage degradation process. If the cartilage is destroyed, glycosaminoglycans (GAGs) are released into the cell culture supernatant. The amount of GAGs liberated can be determined quantitatively with the aid of DMMB (dimethylmethylene blue hydrochloride). If sulfated GAGs are detected using dimethylmethylene blue hydrochloride, the decrease in the absorption at 633 nm is utilised. […] In order to determine the concentration, a calibration line is also recorded using chondroitin sulfate.
# 1.) Procedure: pH-Induced Cartilage Degradation of Bovine Explants
# The bovine explants are firstly prepared. The induction of the cartilage degradation is carried out in 96-multiwell plates. One explant is cultivated per well. In each case, 200 μl of DMEM (incubation medium pH 5.5) without FBS+30 μg/ml of ascorbic acid are added. Thus negative control, explants (n=4) are incubated at pH 7.4 (without FBS). This control is not included in the calculation of the data, but instead ensures that the pH change has the desired effect on the liberation of GAG. At this point, the substances to be tested are added. No pre-incubation of the explants is carried out. The explants are cultivated with the corresponding substances for 3 days in the incubator at 37° C. and 7.5% CO2.
# In order to investigate the effect of cathepsin D inhibitors on the liberation of GAG (glycosaminoglycan), the substances are employed in the desired concentration and cultivated for 3 days. The compounds to be tested are tested in a first experiment in a concentration of 1 μM and 1% of DMSO. Substances which have an effect of >50% on the liberation of GAG (this corresponds to <50% of the control in the Assay Explorer) are tested in the next experiment at 100 nM and 1% of DMSO. Substances which have an effect of >50% on the liberation of GAG under these conditions (this corresponds to <50% of the control in the Assay Explorer) are tested in a concentration/effect relationship. The compounds here are investigated in the following concentrations: 30 μM, 10 μM, 3 μM, 1 μM, 0.3 μM, 0.1 μM, 0.03 μM, 0.01 μM.
# The positive control used is pepstatin A with a concentration of 0.01 μM. The assay window is defined by the control (pH 5.5), defined as 0% effect, and the control pH 5.5+0.01 μM pepstatin A, defined as 100% effect. After incubation for 3 days, the cell culture supernatants are collected and stored at −20° C. or measured directly. The amount of liberated GAG is measured photometrically.
# The effect (1 value) of the respective substance in % based on the positive control (pH 5.5+0.01 μM pepstatin A) and the negative control (pH 5.5) is reported for concentrations of 1 μM and 100 nM. The value represents the average of 4 replicants. In the determination of a concentration/effect relationship, an IC50 value is reported to the database (Assay Explorer).
# The cell culture supernatants (200 μl) are either measured directly or stored at −20° C. […] A rapid colour reaction occurs, which is subsequently measured at 633 nm using a plate reader (for example Envision). […]
# [2] = Stability in bovine synovial fluid; assay type: in vitro ADME; settings: 1 μM, up to 48 h at 37° C.
# Protocol: EXAMPLE 7: STABILITY OF THE COMPOUNDS ACCORDING TO THE INVENTION IN BOVINE SYNOVIAL FLUID
# In the preparation of bovine explants (for the diffusion chamber or other assays), either cow hoof (metacarpal joints) or cow knee is used. The synovial fluid can be obtained from both joints. To this end, the synovial fluid is carefully removed from the open joint using a 10 ml syringe and a cannula and transferred into prepared 2 ml Eppendorf vessels. The Eppendorf vessels are labelled depending on the animal (cow passport is available). […] If this is the case, the synovial fluid will become a reddish colour and must consequently be discarded. The synovial fluid is basically highly viscous and clear to yellowish in colour. The removal together with a macroscopic analysis of the synovial fluid is documented.
# In order to check the stability of individual compounds, a pool of four different bovine synovial fluids is mixed. To this end, about 1 ml per SF is used. The mixture is prepared directly in a 5 ml glass vessel. The SFs are mixed thoroughly, but carefully. No air bubbles or foam should form. To this end, a vortex unit is used at the lowest speed. The compounds to be tested are tested in an initial concentration (unless required otherwise) of 1 μM. After addition of the substance, the batch is again mixed thoroughly and carefully. For visual monitoring, all SF batches are photographed, and the pictures are filed in the eLabBio file for the corresponding experiment. […] The batches are incubated in the incubator for 48 h at 37° C. and 7.5% CO2.
# The sampling is carried out after the pre-agreed times (unless required otherwise, see below). 200 μl of the SF are removed from the mixture per time and transferred directly into a 0.5 ml “low-binding” Eppendorf vessel. […]
# The concentrations measured (ng/ml) are plotted against the time in a graph (GraphPad Prism®). The percentage stability of the substance is determined here. […]
# All compounds measured remained stable (see Table 2 in Example 1).
Stability in synovial fluid [2],Compound,IC50 [1] [nM]
stable,"CC[C@H](C)[C@H](NC(=O)C[C@H](O)[C@H](Cc1ccccc1)NC(=O)[C@@H](NC(=O)Cc1cccc(OC)c1)C(C)C)C(=O)N[C@H](C(=O)O)C(C)C [Compound 20, (S)-2-[(2S,3S)-2-((3S,4S)-3-hydroxy-4-{(S)-2-[2-(3-methoxyphenyl)-acetylamino]-3-methylbutyrylamino}-5-phenylpentanoylamino)-3-methylpentanoylamino]-3-methylbutyric acid]",47.9
stable,"CC[C@H](C)[C@H](NC(=O)C[C@H](O)[C@H](Cc1ccccc1)NC(=O)[C@@H](NC(=O)CCCc1ccccc1)C(C)C)C(=O)N[C@H](C(=O)O)C(C)C [Compound 5, (S)-2-((2S,3S)-2-{(3S,4S)-3-hydroxy-4-[(S)-3-methyl-2-(4-phenyl-butyrylamino)butyrylamino]-5-phenylpentanoylamino}-3-methylpentanoylamino)-3-methylbutyric acid]",989
stable,"CC[C@H](C)[C@H](NC(=O)C[C@H](O)[C@H](Cc1ccccc1)NC(=O)[C@@H](NC(=O)CCc1ccccc1)C(C)C)C(=O)N[C@H](C(=O)O)C(C)C [Compound 4, (S)-2-((2S,3S)-2-{(3S,4S)-3-hydroxy-4-[(S)-3-methyl-2-(3-phenyl-propionylamino)butyrylamino]-5-phenylpentanoylamino}-3-methylpentanoylamino)-3-methylbutyric acid]",60.6
